The values below come from patent US20260125400A1, “TYK2 DEGRADERS AND USES THEREOF” (Kymera Therapeutics, Inc., priority 2023, published 2026).

For the test, the target named is T1, TYK2 (Homo sapiens, UniProt P29597).
T1 construct: Degradation of TYK2 in cells was quantitatively measured using Meso Scale Discovery (MSD) technology; endogenous in cells; host or cells: OCI-LY10
Briefly: TYK2 MSD degradation in OCI-LY10 cells. In kind it is cell-based. As to conditions: TYK2 degradation in OCI-LY10 cells, 4 to 24 hours incubation; for DC50: read-out: TYK2 MSD OCI-LY10 Rel-DC50. Put shortly: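 Cellular TYK2 levels were measured by Meso Scale Discovery sandwich detection in RIPA lysates of OCI-LY10 cells exposed 4 to 24 hours at 37° C to nine 1:3 compound doses starting at 1 to 10 μM final; dose-response fitted by four-parameter regression.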

A word on the DC50: it is the concentration at which degradation of the target reaches its halfway point. As usually defined, the Dmax is the greatest extent of degradation seen. A high value points to a fuller loss of target.

T1 sequence (P29597 whole entry): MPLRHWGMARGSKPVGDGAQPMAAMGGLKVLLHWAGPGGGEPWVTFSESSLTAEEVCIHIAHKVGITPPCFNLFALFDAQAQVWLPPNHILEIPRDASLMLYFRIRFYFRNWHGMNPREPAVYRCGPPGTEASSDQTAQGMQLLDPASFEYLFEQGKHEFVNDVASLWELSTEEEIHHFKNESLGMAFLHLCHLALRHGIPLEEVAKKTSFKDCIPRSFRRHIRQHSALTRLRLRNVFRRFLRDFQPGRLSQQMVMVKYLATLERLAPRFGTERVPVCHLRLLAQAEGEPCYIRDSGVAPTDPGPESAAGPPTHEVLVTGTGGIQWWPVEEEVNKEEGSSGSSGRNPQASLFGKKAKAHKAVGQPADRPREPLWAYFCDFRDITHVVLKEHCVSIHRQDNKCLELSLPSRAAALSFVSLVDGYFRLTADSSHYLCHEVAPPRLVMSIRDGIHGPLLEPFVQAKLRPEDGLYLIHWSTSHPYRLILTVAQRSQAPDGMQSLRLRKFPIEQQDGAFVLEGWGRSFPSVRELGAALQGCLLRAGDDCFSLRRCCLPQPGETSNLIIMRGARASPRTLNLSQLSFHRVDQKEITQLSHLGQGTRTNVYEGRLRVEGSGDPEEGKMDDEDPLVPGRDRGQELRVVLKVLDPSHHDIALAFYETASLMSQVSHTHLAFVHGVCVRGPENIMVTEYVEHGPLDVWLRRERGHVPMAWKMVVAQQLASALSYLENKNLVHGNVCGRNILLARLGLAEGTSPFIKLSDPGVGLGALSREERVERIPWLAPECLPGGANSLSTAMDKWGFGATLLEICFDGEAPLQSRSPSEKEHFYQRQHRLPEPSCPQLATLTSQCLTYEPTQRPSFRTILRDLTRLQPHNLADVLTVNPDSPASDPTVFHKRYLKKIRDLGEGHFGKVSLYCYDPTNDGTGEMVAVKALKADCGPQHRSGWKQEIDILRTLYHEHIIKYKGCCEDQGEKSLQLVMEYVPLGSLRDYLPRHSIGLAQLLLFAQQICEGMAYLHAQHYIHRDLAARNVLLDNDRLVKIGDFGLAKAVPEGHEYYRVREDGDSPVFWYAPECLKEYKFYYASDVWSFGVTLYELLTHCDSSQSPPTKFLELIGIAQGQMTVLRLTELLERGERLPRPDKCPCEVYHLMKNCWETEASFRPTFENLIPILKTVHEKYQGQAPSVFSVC

On to `CNc1cc(N2CCc3c(-c4ncc(CN5CCC6(CCN(C(=O)c7cc(C)c(Cl)c(N8CCC(=O)NC8=O)c7)CC6)C(F)(F)C5)cn4)cccc32)nn2c(C(=O)N[C@@H]3C[C@@H]3F)cnc12` [I-799], for which the “TYK2 MSD OCI-LY10 Dmax %” value was “B (B (90 to >75%))” and the DC50 was < 10 nM.
Consider `CNc1cc(N2CCc3c(CC4CCC5(CC4)CCN(C4CCN(C(=O)c6ccc(Cl)c(N7CCC(=O)NC7=O)c6)CC4(F)F)CC5)cccc32)nn2c(C(=O)N[C@@H]3C[C@@H]3F)cnc12` (stereo partly shown) [I-800], for which the “TYK2 MSD OCI-LY10 Dmax %” value is “D (D (<50%))” and the DC50 was > 100 nM.
On the same counts, the results for `CNc1cc(N2CCc3c(CN4CCC(N5CCC6(CCN(C(=O)c7ccc(Cl)c(N8CCC(=O)NC8=O)c7)CC6)CC5)CC4)cccc32)nn2c(C(=O)N[C@@H]3C[C@@H]3F)cnc12` [I-802] are “B (B (90 to >75%))” and < 10 nM.
For the compound `CNc1cc(N2CCc3c(CN4CCC(N5CCC(N6CCN(C(=O)c7ccc(Cl)c(N8CCC(=O)NC8=O)c7)CC6)C5)C(F)(F)C4)cccc32)nn2c(C(=O)N[C@@H]3C[C@@H]3F)cnc12` (stereo partly shown) [I-803], the “TYK2 MSD OCI-LY10 Dmax %” value is listed as “A (A (>90%))” and the DC50 is < 1 nM.
On the same counts, the results for `CNc1cc(N2CCc3c(CN4CCC(N5CCC6(CCN(C(=O)c7ccc(Cl)c(N8CCC(=O)NC8=O)c7)CC6)C5)C(F)(F)C4)cccc32)nn2c(C(=O)N[C@@H]3C[C@@H]3F)cnc12` (stereo partly shown) [I-805] are “A (A (>90%))” and < 1 nM.
The like results for `CNc1cc(N2CCc3c2cccc3C23CC(CN4CCC(N5CCC6(CCN(C(=O)c7ccc(Cl)c(N8CCC(=O)NC8=O)c7)CC6)CC5)C(F)(F)C4)(C2)C3)nn2c(C(=O)N[C@@H]3C[C@@H]3F)cnc12` (stereo partly shown) [I-807] were, in that order, “B (B (90 to >75%))” and < 10 nM.
The like results for `CNc1cc(N2CCc3c(CN4CCC(N5CCC6(CCN(C(=O)c7ccc(Cl)c(N8CCC(=O)NC8=O)c7)CC6)CC5)C(F)(F)C4)cc(F)cc32)nn2c(C(=O)N[C@@H]3C[C@@H]3F)cnc12` (stereo partly shown) [I-808] were, in that order, “A (A (>90%))” and < 1 nM.
Regarding `CNc1cc(N2CCc3c(CN4CCC(N5CCC6(CCN(C(=O)c7ccc(Cl)c(N8CCC(=O)NC8=O)c7)C6)C5)C(F)(F)C4)cccc32)nn2c(C(=O)N[C@@H]3C[C@@H]3F)cnc12` (stereo partly shown) [I-811], the “TYK2 MSD OCI-LY10 Dmax %” value is “A (A (>90%))” and the DC50 is < 1 nM.
Regarding `CNc1cc(N2CCc3c(-c4ncc(CN5CC6(CCN(C(=O)c7cc(C)c(Cl)c(N8CCC(=O)NC8=O)c7)CC6(F)F)C5)cc4F)cccc32)nn2c(C(=O)N[C@@H]3C[C@@H]3F)cnc12` [I-813, 6-(4-(5-((7-(4-chloro-3-(2,4-dioxotetrahydropyrimidin-1(2H)-yl)-5-methylbenzoyl)-5,5-difluoro-2,7-diazaspiro[3.5]nonan-2-yl)methyl)-3-fluoropyridin-2-yl)indolin-1-yl)-N-((1R,2S)-2-fluorocyclopropyl)-8-(methylamino)imidazo[1,2-b]pyridazine-3-carboxamide], the Dmax was > 90% and the DC50 is < 1 nM.
On to `CNc1cc(N2CCc3c(-c4ccc(CN5CCC6(CCN(C(=O)c7cc(C)c(Cl)c(N8CCC(=O)NC8=O)c7)CC6)C(F)(F)C5)cn4)cc(F)cc32)nn2c(C(=O)N[C@@H]3C[C@@H]3F)cnc12` [I-815], for which the “TYK2 MSD OCI-LY10 Dmax %” value is “B (B (90 to >75%))” and the DC50 was < 10 nM.
In the case of `CNc1cc(N2CCc3c(-c4ccc(CN5CCC6(CCN(C(=O)c7cc(C)c(Cl)c(N8CCC(=O)NC8=O)c7)CC6)C(F)(F)C5)cn4)cccc32)nc2c(C(=O)N[C@@H]3C[C@@H]3F)cnn12` [I-816], the “TYK2 MSD OCI-LY10 Dmax %” value is “B (B (90 to >75%))” and the DC50 was < 10 nM.
The like results for `CNc1cc(N2CCc3c(-c4ncc(CN5CCC6(CCN(C(=O)c7cc(C)c(Cl)c(N8CCC(=O)NC8=O)c7)CC6)C(F)(F)C5)cc4F)cccc32)nn2c(C(=O)N[C@@H]3C[C@@H]3F)cnc12` [I-818] were, in that order, “B (B (90 to >75%))” and < 10 nM.
Take `CNc1cc(N2CCc3c(CC4CCN(C5CCC6(CC5)CCN(C(=O)c5ccc(Cl)c(N7CCC(=O)NC7=O)c5)CC6)CC4)cccc32)nn2c(C(=O)N[C@@H]3C[C@@H]3F)cnc12` [I-820]: the “TYK2 MSD OCI-LY10 Dmax %” value is reported as “B (B (90 to >75%))” and the DC50 is < 10 nM.
Turning to `CNc1cc(N2CCc3c2cccc3C23CC(CN4CCN(C5CCN(C(=O)c6ccc(Cl)c(N7CCC(=O)NC7=O)c6)CC5)CC4)(C2)C3)nn2c(C(=O)N[C@@H]3C[C@@H]3F)cnc12` [I-823], the “TYK2 MSD OCI-LY10 Dmax %” value is on record as “A (A (>90%))” and the DC50 is < 1 nM.
On the same counts, the results for `CNc1cc(N2CCc3c(-c4ccc(CN5CCC6(CCN(C(=O)c7ccc(Cl)c(N8CCC(=O)NC8=O)c7)CC6)C(F)(F)C5)cn4)cccc32)nn2c(C(=O)NC3CCC3)cnc12` [I-824] are “B (B (90 to >75%))” and < 10 nM.
The like results for `CNc1cc(N2CCc3c2cccc3C23CC(CN4CCN(C5CCN(C(=O)c6ccc(Cl)c(N7CCC(=O)NC7=O)c6)CC5(F)F)CC4)(C2)C3)nn2c(C(=O)N[C@@H]3C[C@@H]3F)cnc12` (stereo partly shown) [I-832] were, in that order, “A (A (>90%))” and < 1 nM.
On to `CNc1cc(N2CCc3c(CN4CCC5(CC4)CCN(C4CCN(C(=O)c6ccc(Cl)c(N7CCC(=O)NC7=O)c6)CC4)CC5(F)F)cccc32)nn2c(C(=O)N[C@@H]3C[C@@H]3F)cnc12` [I-833], for which the “TYK2 MSD OCI-LY10 Dmax %” value is reported as “B (B (90 to >75%))” and the DC50 is < 10 nM.
As for `CNc1cc(N2CCc3c(-c4ccc(CN5CCC6(CCN(C(=O)c7cc(Cl)cc(N8CCC(=O)NC8=O)c7)CC6)C(F)(F)C5)cn4)cccc32)nn2c(C(=O)N[C@@H]3C[C@@H]3F)cnc12` [I-835], the “TYK2 MSD OCI-LY10 Dmax %” value was “B (B (90 to >75%))” and the DC50 was < 10 nM.
The like results for `CNc1cc(N2CCc3c(CN4CCC5(CCN(C6CCN(C(=O)c7ccc(Cl)c(N8CCC(=O)NC8=O)c7)CC6)CC5)C(F)(F)C4)cccc32)nn2c(C(=O)N[C@@H]3C[C@@H]3F)cnc12` [I-836] were, in that order, “B (B (90 to >75%))” and < 10 nM.
In the case of `CNc1cc(N2CCc3c(CN4CCC(N5CC6(CCN(C(=O)c7ccc(Cl)c(N8CCC(=O)NC8=O)c7)CC6)C5)C(F)(F)C4)cccc32)nn2c(C(=O)N[C@@H]3C[C@@H]3F)cnc12` (stereo partly shown) [I-840], the “TYK2 MSD OCI-LY10 Dmax %” value was “A (A (>90%))” and the DC50 was < 1 nM.
The like results for `CNc1cc(N2CCc3c(CN4CCC(N5CCC6(CCN(C(=O)c7cc(N8CCC(=O)NC8=O)c(Cl)cc7F)CC6)CC5)C(F)(F)C4)cccc32)nn2c(C(=O)N[C@@H]3C[C@@H]3F)cnc12` (stereo partly shown) [I-841] were, in that order, “A (A (>90%))” and < 1 nM.
With `COC1(c2cc(C)cc(-c3cn(C4CCN(CC5CCN(c6ccc(NC7CCC(=O)NC7=O)c(F)c6)CC5)CC4)c4cnc(NC(C)=O)cc34)n2)CCOC1` (stereo not shown) [I-842], the “TYK2 MSD OCI-LY10 Dmax %” value was “A (A (>90%))” and the DC50 is < 1 nM.
As for `CNc1cc(N2CCc3c(CN4CCC(N5CCC6(CCN(C(=O)c7cc(F)c(C)c(N8CCC(=O)NC8=O)c7)CC6)CC5)C(F)(F)C4)cccc32)nn2c(C(=O)N[C@@H]3C[C@@H]3F)cnc12` (stereo partly shown) [I-843], the “TYK2 MSD OCI-LY10 Dmax %” value was “A (A (>90%))” and the DC50 was < 1 nM.
On to `CNc1cc(N2CCc3c(CN4CCC(N5CCC6(CCN(Cc7ccc(Cl)c(N8CCC(=O)NC8=O)c7)CC6)CC5)C(F)(F)C4)cccc32)nn2c(C(=O)N[C@@H]3C[C@@H]3F)cnc12` (stereo partly shown) [I-844], for which the “TYK2 MSD OCI-LY10 Dmax %” value is “B (B (90 to >75%))” and the DC50 was < 10 nM.
With `CNc1cc(N2CCc3c(CN4CCC(N5CCC6(CCN(C(=O)c7cc(N8CCC(=O)NC8=O)c(C)cc7Cl)CC6)CC5)C(F)(F)C4)cccc32)nn2c(C(=O)N[C@@H]3C[C@@H]3F)cnc12` (stereo partly shown) [I-845], the “TYK2 MSD OCI-LY10 Dmax %” value is reported as “A (A (>90%))” and the DC50 is < 1 nM.
The like results for `CNc1cc(N2CCc3c(C#CCN4CCN(C5CCN(C(=O)c6ccc(Cl)c(N7CCC(=O)NC7=O)c6)CC5(F)F)CC4)cccc32)nn2c(C(=O)NC3CC3F)cnc12` (stereo not shown) [I-846] were, in that order, “A (A (>90%))” and < 1 nM.
On the same counts, the results for `CNc1cc(N2CCc3c(-c4ccc(CN5CCC6(CC5)CN(C(=O)c5ccc(Cl)c(N7CCC(=O)NC7=O)c5)CC6(F)F)cn4)cccc32)nn2c(C(=O)N[C@@H]3C[C@@H]3F)cnc12` [I-847] are “A (A (>90%))” and < 1 nM.
As to `COC1(c2cc(-c3ccc(CN4CCC5(CC4)CCN(C(=O)c4ccc(Cl)c(N6CCC(=O)NC6=O)c4)CC5)cn3)cc(-c3cn(C)c4cnc(NC(C)=O)cc34)n2)CCOC1` (stereo not shown) [I-848], the “TYK2 MSD OCI-LY10 Dmax %” value is on record as “A (A (>90%))” and the DC50 is < 1 nM.
The like results for `CNc1cc(N2CCc3c(-c4ccc(CN5CC(F)(F)C6(CCN(C(=O)c7ccc(Cl)c(N8CCC(=O)NC8=O)c7)CC6)C5)cn4)cccc32)nn2c(C(=O)N[C@@H]3C[C@@H]3F)cnc12` [I-849] were, in that order, “B (B (90 to >75%))” and < 10 nM.
On to `COC1(c2cc(-c3ccc(CN4CC5(CCN(C(=O)c6ccc(Cl)c(N7CCC(=O)NC7=O)c6)CC5)C4)cn3)cc(-c3cn(C)c4cnc(NC(C)=O)cc34)n2)CCOC1` (stereo not shown) [I-850], for which the “TYK2 MSD OCI-LY10 Dmax %” value is reported as “B (B (90 to >75%))” and the DC50 was < 10 nM.
With `CNc1cc(N2CCc3c(-c4ccc(CN5CCC6(CCN(C(=O)c7ccc(Cl)c(N8CCC(=O)NC8=O)c7)CC6)C(F)(F)C5)cn4)cccc32)nn2c(C(=O)NC34CC(C3)C4)cnc12` [I-851], the “TYK2 MSD OCI-LY10 Dmax %” value is on record as “C (C (75 to 50%))” and the DC50 is 10 to 100 nM.
On the same counts, the results for `CNc1cc(N2CCc3c(-c4ccc(CN5CC6(CCN(C(=O)c7ccc(Cl)c(N8CCC(=O)NC8=O)c7)CC6(F)F)C5)cn4)cc(C)cc32)nn2c(C(=O)N[C@@H]3C[C@@H]3F)cnc12` [I-852] are “B (B (90 to >75%))” and < 10 nM.
